Experimental data taken from US20180200223A1, “APPLICATION OF NARINGENIN AND NARINGIN IN TUMOR RADIOTHERAPY” (INSTITUTE OF BIOPHYSICS CHINESE ACADEMY OF SCIENCES, priority 2015, published 2018).

What was measured:
[1] = test system: 4T1 breast tumor with lung metastasis; assay: 4T1 breast tumor lung metastasis mice with lung irradiation: lung injury, nodules, cytokines; format: in vivo, Balb/C mice
Method: (1) Resuscitation and culture of 4T1 cells: Cell culture hood need to be sterilized by UV for 30 min before resuscitating the 4T1 cells. Equilibrate the RPMI 1640 culture medium (containing 10% fetal bovine serum) to room temperature for further application. The cryovial containing tumor cells are taken from liquid nitrogen storage and immediately put into a 37° C. water bath, shaking quickly until the cells are completely dissolved. Transfer the cells into a cell culture flask with 10-15 ml medium to suspend the sedimentary cells. After adjusting the concentration of the cells, culture the cells in an incubator with a saturated humidified atmosphere containing 5% (v/v) CO2 at 37° C. Replace fresh medium every day during. Digest the cells by 0.25% trypsin when the convergence of the cells reaches 90%, and then subculture the cells at a ratio of 1:3. On the day of experiment, we collect the cells by digesting the cells with 0.25% trypsin, then neutralize the trypsin with RPMI 1640 with 10% fetal bovine serum. Centrifuge the cells at 800 rpm, and then resuspend the cells in sterile PBS. After counting the density of cells, adjust the cells to 1×10^5/ml for tumor cells inoculation. (2) 4T1 cells are mixed well before inoculation. Pipet 0.3 ml of cells by a 1 ml sterile syringe, and inject 0.1 ml of cells per mouse (namely 1×10^4 4 T1 cells per mouse). (1) 4T1 murine breast tumor cell line was used to inoculate the tail vein of Balb/C mice to form lung metastatic tumors. 1×10^4 4 T1 cells were intravenously injected into the tail vein per mouse, and 10-15 days later nodules would develop in lung. (2) Set the day of inoculation as day 0. 200 mg/kg naringenin (Nar) (suspended in 1% CMC-Na) was administered orally to the mice at day 12 day after inoculation, namely 3 days before irradiation on the lungs. The mice received a 12 Gy of γ-ray irradiation once at day 14 after inoculation and keep naringenin administration. A part of the mice in each group were sacrificed at day 28 after inoculation and the blood, lung tissues were collected while the lungs were weighed. The tumor nodules in the lungs were observed under the condition of without destroying the integrity of lung tissues. Serum were separated and assayed for cytokines such as IL-6, IL-113, IFN-γ, etc. The lung tissues collected at day 28 after inoculation were used for biopsy and the observation of lung injury as well as inflammatory cells infiltration. The rest animals were used for survival observation. The mice in this experiment are separated into 4 groups as follows: • 1) Normal control group (Normal) • 2) 4T1 tumor-bearing mice without irradiation group (4T1) • 3) 4T1 tumor-bearing mice receiving lung irradiation without naringenin administration group (4T1+IR) • 4) 4T1 tumor-bearing mice receiving lung irradiation with naringenin administration group (4T1+IR+Nar) 3 groups of mice were inoculated with 4T1 tumor cells. Each group contains 12 mice with half male and half female which were fed in separate cages, and each cage contains 6 mice.

[2] = test system: 4T1 breast tumor with lung metastasis; assay: Survival of mice bearing 4T1 breast tumor with lung metastasis after radiotherapy; format: in vivo, Balb/c mice
Method: (1) Resuscitation and culture of 4T1 cells: Cell culture hood need to be sterilized by UV for 30 min before resuscitating the 4T1 cells. Equilibrate the RPMI 1640 culture medium (containing 10% fetal bovine serum) to room temperature for further application. The cryovial containing tumor cells are taken from liquid nitrogen storage and immediately put into a 37° C. water bath, shaking quickly until the cells are completely dissolved. Transfer the cells into a cell culture flask with 10-15 ml medium to suspend the sedimentary cells. After adjusting the concentration of the cells, culture the cells in an incubator with a saturated humidified atmosphere containing 5% (v/v) CO2 at 37° C. Replace fresh medium every day during. Digest the cells by 0.25% trypsin when the convergence of the cells reaches 90%, and then subculture the cells at a ratio of 1:3. On the day of experiment, we collect the cells by digesting the cells with 0.25% trypsin, then neutralize the trypsin with RPMI 1640 with 10% fetal bovine serum. Centrifuge the cells at 800 rpm, and then resuspend the cells in sterile PBS. After counting the density of cells, adjust the cells to 1×10^5/ml for tumor cells inoculation. (2) 4T1 cells are mixed well before inoculation. Pipet 0.3 ml of cells by a 1 ml sterile syringe, and inject 0.1 ml of cells per mouse (namely 1×10^4 4 T1 cells per mouse). (1) 4T1 murine breast tumor cell line was intravenously injected to form lung metastatic tumors in Balb/c mice. Lung metastatic nodules would develop about 10-15 days after 1×10^4 4 T1 cells were inoculated. (2) Set the day of inoculation as day 0, at day 12 after inoculation, different doses of naringenin (Nar), namely 50, 100 and 200 mg/kg (suspended in 1% CMC-Na), were administered orally. The mice received γ-ray irradiation (8 Gy×2 f) at day 14 and day 15 after inoculation. […] The administration of either naringenin or dexamethasone plus cefixime continued until the mice started to die, and the survivals were observed and recorded. […]

LLC lung tumor = LLC lung tumor bearing mice with lung irradiation; format: in vivo, C57B6/L mice
Excerpt: (1) LLC murine lung cancer cell line was used to intravenously inoculate the C57B6/L mice to form lung metastatic tumors. About 24 days after 5×10^5 LLC cells were inoculated, nodules in the lung would develop. (2) The mice were divided into 4 groups, and each group contains 10 mice. The grouping methods are as followed: 1) Normal control group (Normal); 2) LLC tumor-bearing mice without irradiation group (LLC); 3) LLC tumor-bearing mice receiving lung irradiation without naringenin administration group (LLC+IR); 4) LLC tumor-bearing mice receiving lung irradiation with naringenin (Nar) administration group (LLC+IR+Nar); Set the day of inoculation as day 0. (6) 100 mg/kg naringenin (Nar) (suspended in 1% CMC-Na) was administered orally to each of the mice in LLC+IR+Nar group at day 12 after inoculation (namely 3 days before lung irradiation); (7) The mice received γ-ray irradiation with a dose of 12 Gy per mouse per time at day 14 after inoculation; (8) Continue to orally administrate 100 mg/kg naringenin (Nar) (suspended in 1% CMC-Na) to each of the mice in LLC+IR+Nar group at day 15 day after inoculation (namely 1 day after lung irradiation); (9) At day 21 after inoculation, 5 animals in each group were randomly selected for sample collection. After dissection, the blood and lung tissues were collected, and the lungs were weighed. Then the number of tumor nodules in the lungs were counted without destroying the complete structure of lung tissues. (10) At day 37 after inoculation, the remaining animals in each group were sacrificed and dissected. The blood and lung tissues were collected, and the lungs were weighed. Then the number of tumor nodules in the lungs were counted without destroying the complete structure of lung tissues. Serum was separated and assayed for inflammatory cytokines such as IL-6, IL-113, IFN-γ, etc. The lung tissues were used for biopsy and the observation of lung injury and inflammatory cells infiltration. […]

[3] = test system: inflammatory cytokine IL-1β; assay: DNA fragment-induced IL-1β release from primary peritoneal macrophages (ELISA); format: cell-based, mouse; details: 100 μM pretreatment 2 h, DNA fragments 100 ng/mL 24 h, supernatant ELISA
Method: 4% Brewer thioglycollate medium (1.5 ml/mouse) was intraperitoneally injected. Four days later, washing the abdominal cavity of these mice with serum-free medium (DMEM) (10 ml/mouse). The lavage fluids were collected and centrifuged at 1300 rpm for 5 minutes. The cell pellet was resuspended and seeded into a 24-well plate at the concentration of 2×10^6 cells/well. Two hours later, the non-adherent cells were carefully removed and the remaining adherent cells are primary peritoneal macrophages. Identification: Macrophage surface marker F4/80 was detected by flow cytometry using PE-labelled anti-F4/80 antibody (ebioscience). […] Sample treatment: The macrophages were pretreated with 100 μM naringenin (Nar) for 2 h, and then were stimulated with DNA fragments (100 ng/mL) for 24h. The supernatants were collected and the concentration of inflammatory cytokine IL-1β (pg/mL) in the supernatant was measured by ELISA.

[4] = Total antioxidant capacity (FRAP method); details: 27 μM, absorbance 593 nm
Method: The total antioxidant capacity of several flavonoids was detected by the total antioxidant capacity test kit (FRAP method). The principle of the FRAP method is that the antioxidant can reduce ferric-tripyridyltriazine (Fe^3+-TPTZ) to produce a blue Fe^2+-TPTZ under an acidic condition. Measuring the blue Fe^2+-TPTZ at a wavelength of 593 nm to access the antioxidant capacity of the sample. Since the reaction is carried out under an acidic condition, some of the endogenous interference factors can be excluded. (1) Prepare proper amount of FRAP working solution according to the samples numbers referring to the following table. The FRAP working solution was incubated at 37° C. and used no longer than 1-2 hours. Prepare 10 species of flavonoids: quercetin (Que), daidzein (Dai), kaempferol (Kae), apigenin (Api), naringenin (Nar), genistein (Gen), hesperidin (Her), luteolin (Lut), chrysin (Chr) and nobiletin (Nob). Make the final concentration of each flavonoid to 27 μM. Dissolve 27.8 mg of FeSO4.7H2O provided by this kit and dilute to 1 ml to make the concentration to 100 mM. Take an appropriate amount of FeSO4 solution and dilute it to 0.15, 0.3, 0.6, 1.2 and 1.5 mM, respectively. Distilled water or sample preparation solution was used for the preparation of the standards. […] (3) Incubate the plate at 37° C. for 3-5 min, and then determine the absorbance at 593 nm. […]

[5] = 200 mg/kg oral, 12 Gy γ-ray, compared to 4T1+IR group

SMILES: O=C1C[C@@H](c2ccc(O)cc2)Oc2cc(O)cc(O)c21 [naringenin]
- number of tumor nodules in lungs ([1]; 200 mg/kg oral from day 12, 12 Gy γ-ray at day 14, day 28, compared to 4T1 group and 4T1+IR group): decreased
- lung injury and fibrosis (pathological analysis) ([1]; 200 mg/kg oral, 12 Gy γ-ray, day 28, 4T1+IR+Nar vs 4T1+IR): markedly alleviated
- serum level of IFN-γ [1, 5]: significantly changed
- serum level of IL-1β [1, 5]: significantly changed
- serum level of IL-6 [1, 5]: significantly changed
- survival of tumor-bearing mice compared with positive drugs (DXM+CXL) ([2]; 100 mg/kg oral vs dexamethasone 0.25 mg/kg plus cefixime 200 mg/kg): improvement in the survival
- sensitizing/synergizing effect combined with radiotherapy (survival) ([2]; 100 mg/kg oral, compared among the 3 doses): highest sensitizing/synergizing effect
- survival of tumor-bearing mice ([2]; 50, 100 and 200 mg/kg oral, γ-ray 8 Gy×2 f, compared with 4T1+IR group): significantly prolonged
- number of tumor nodules in lungs (LLC lung tumor; 100 mg/kg oral, 12 Gy γ-ray at day 14, compared to LLC and LLC+IR group): significantly decreased
- lung injury (pathological analysis) (LLC lung tumor; 100 mg/kg oral, 12 Gy γ-ray, LLC+IR+Nar vs LLC+IR): significantly alleviated
- survival of mice bearing LLC lung tumor after radiotherapy (LLC lung tumor; FIG. 5 legend): prolongs the survival
- release of inflammatory cytokine IL-1β [3]: significantly reduces
- antioxidant capacity [4]: very weak
